Target: Cytomegalovirus protease/assemblin (Human cytomegalovirus)
Test: Potency against human cytomegalovirus protease in HCMV pNA assay

`COc1ccc2sc(N3C(=O)[C@@H](C)[C@@H]4[C@@H]3CCN4C(=O)[C@@H]3CCCN3C(=O)Nc3ccc(C(C)C)cc3)nc2c1` [(S)-2-[(3aS,6S,6aR)-4-(5-Methoxy-benzothiazol-2-yl)-6-methyl-5-oxo-hexahydro-pyrrolo[3,2-b]pyrrole-1-carbonyl]-pyrrolidine-1-carboxylic acid (4-isopropyl-phenyl)-amide] and `CC(C)c1ccc(NC(=O)N2CCC[C@H]2C(=O)N2CC[C@H]3[C@H]2[C@H](C)C(=O)N3c2nc3ccc(F)cc3s2)cc1` [(S)-2-[(3aS,6S,6aR)-4-(6-Fluoro-benzothiazol-2-yl)-6-methyl-5-oxo-hexahydro-pyrrolo[3,2-b]pyrrole-1-carbonyl]-pyrrolidine-1-carboxylic acid (4-isopropyl-phenyl)-amide] are within 1.5-fold of each other in Ki: 22 nM for the first, 17 nM for the second.

Compared with `CC(C)c1ccc(NC(=O)N2CCC[C@H]2C(=O)N2CC[C@H]3[C@H]2[C@H](C)C(=O)N3c2nc3cc(S(=O)(=O)C(F)F)ccc3s2)cc1` [(S)-2-{(3aS,6S,6aR)-4-[5-(Difluoro-methanesulfonyl)-benzothiazol-2-yl]-6-methyl-5-oxo-hexahydro-pyrrolo[3,2-b]pyrrole-1-carbonyl}-pyrrolidine-1-carboxylic acid (4-isopropyl-phenyl)-amide], `CC(C)c1ccc(NC(=O)N2CCC[C@H]2C(=O)N2CC[C@H]3[C@H]2[C@H](C)C(=O)N3c2nc3c(Cl)cccc3s2)cc1` [(S)-2-[(3aS,6S,6aR)-4-(4-Chloro-benzothiazol-2-yl)-6-methyl-5-oxo-hexahydro-pyrrolo[3,2-b]pyrrole-1-carbonyl]-pyrrolidine-1-carboxylic acid (4-isopropyl-phenyl)-amide] is 4.1-fold higher in Ki: 10 nM for the first, 41 nM for the second. The first binds more tightly here.
